Assay results reported in patent US12447153B2, “HER2 mutation inhibitors” (Array BioPharma Inc., priority 2021, dated 2025).

How the values were obtained:
[1] = target: ErbB2 with Exon 20 YVMA insertion (HER2-YVMA) (Homo sapiens (Human), UniProt P04626, INS775YVMA); assay: Cellular Phosphorylation Assay, Assay 4 (constitutive ErbB2 phosphorylation, NIH 3T3 cells); assay type: cell-based
[2] = target: EGFR (Homo sapiens (Human), UniProt P00533); assay: ErbB Enzyme Assay (HTRF KinEASE-TK), Assay 3; assay type: biochemical
Chain of EGFR (P00533 25-1210): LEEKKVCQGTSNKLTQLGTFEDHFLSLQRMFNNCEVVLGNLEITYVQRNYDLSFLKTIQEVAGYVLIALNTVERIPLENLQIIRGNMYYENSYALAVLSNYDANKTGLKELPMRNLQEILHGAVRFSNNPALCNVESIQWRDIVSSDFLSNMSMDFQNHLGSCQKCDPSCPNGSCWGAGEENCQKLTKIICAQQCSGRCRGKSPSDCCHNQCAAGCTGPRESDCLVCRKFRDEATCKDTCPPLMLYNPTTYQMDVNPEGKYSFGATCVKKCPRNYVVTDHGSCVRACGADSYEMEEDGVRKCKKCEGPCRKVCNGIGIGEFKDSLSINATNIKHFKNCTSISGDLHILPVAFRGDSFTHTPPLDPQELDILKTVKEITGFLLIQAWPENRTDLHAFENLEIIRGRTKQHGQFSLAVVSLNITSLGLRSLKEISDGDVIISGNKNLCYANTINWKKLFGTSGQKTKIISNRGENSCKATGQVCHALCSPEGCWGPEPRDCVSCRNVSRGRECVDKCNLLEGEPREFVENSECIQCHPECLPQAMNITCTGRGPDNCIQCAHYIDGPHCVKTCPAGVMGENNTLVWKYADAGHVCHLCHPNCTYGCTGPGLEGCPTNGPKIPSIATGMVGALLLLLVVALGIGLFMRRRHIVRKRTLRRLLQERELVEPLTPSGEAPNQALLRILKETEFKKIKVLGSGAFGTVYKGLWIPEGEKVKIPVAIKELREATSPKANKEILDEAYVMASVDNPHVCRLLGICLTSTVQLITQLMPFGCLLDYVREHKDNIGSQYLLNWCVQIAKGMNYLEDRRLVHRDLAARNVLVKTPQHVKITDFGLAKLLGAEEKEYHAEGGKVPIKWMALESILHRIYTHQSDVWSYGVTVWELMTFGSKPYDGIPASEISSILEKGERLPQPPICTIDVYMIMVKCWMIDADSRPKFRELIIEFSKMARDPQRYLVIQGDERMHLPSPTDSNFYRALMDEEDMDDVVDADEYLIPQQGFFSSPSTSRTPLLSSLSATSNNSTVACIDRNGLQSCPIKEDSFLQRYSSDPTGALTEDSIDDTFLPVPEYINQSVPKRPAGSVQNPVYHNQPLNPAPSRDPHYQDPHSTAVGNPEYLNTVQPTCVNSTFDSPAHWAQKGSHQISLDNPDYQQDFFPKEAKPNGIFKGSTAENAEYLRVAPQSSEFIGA

[3] = target: BCRP (Homo sapiens (Human), UniProt Q9UNQ0); assay: BCRP MDCKII efflux assay (Assay 7); assay type: in vitro ADME; details: dog; efflux ratio Papp(B-A)/Papp(A-B), BCRP MDCKII cells; read-out: Assay 7 Pe Ratio
Chain of BCRP (Q9UNQ0 whole entry): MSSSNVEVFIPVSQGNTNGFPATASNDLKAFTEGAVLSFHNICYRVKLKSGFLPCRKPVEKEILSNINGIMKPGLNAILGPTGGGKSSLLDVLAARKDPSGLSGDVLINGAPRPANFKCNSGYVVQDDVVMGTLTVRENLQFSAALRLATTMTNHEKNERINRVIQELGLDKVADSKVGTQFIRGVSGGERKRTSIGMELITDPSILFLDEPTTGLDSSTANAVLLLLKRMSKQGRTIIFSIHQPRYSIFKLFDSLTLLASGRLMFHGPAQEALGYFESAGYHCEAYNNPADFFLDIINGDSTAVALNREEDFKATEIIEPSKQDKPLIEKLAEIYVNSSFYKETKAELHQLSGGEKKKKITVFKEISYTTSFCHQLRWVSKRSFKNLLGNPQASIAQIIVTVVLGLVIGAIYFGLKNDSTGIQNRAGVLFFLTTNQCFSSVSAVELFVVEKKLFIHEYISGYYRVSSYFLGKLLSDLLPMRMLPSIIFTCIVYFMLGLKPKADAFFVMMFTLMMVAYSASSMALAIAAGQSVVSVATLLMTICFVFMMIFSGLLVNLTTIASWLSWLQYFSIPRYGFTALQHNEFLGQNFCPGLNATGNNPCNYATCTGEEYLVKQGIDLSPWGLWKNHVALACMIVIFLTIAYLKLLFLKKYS
Method: Assay conditions included with and without the BCRP-specific inhibitor, KO143, at a concentration of 0.3 μM to ascertain the contribution of BCRP to the efflux value of the test compound.
Final organic concentration in the assay was 1%.

[4] = target: ErbB2 WT (Homo sapiens (Human), UniProt P04626); assay: ErbB Enzyme Assay (HTRF KinEASE-TK), Assay 2; assay type: biochemical
Chain of ErbB2 WT (P04626 23-1255): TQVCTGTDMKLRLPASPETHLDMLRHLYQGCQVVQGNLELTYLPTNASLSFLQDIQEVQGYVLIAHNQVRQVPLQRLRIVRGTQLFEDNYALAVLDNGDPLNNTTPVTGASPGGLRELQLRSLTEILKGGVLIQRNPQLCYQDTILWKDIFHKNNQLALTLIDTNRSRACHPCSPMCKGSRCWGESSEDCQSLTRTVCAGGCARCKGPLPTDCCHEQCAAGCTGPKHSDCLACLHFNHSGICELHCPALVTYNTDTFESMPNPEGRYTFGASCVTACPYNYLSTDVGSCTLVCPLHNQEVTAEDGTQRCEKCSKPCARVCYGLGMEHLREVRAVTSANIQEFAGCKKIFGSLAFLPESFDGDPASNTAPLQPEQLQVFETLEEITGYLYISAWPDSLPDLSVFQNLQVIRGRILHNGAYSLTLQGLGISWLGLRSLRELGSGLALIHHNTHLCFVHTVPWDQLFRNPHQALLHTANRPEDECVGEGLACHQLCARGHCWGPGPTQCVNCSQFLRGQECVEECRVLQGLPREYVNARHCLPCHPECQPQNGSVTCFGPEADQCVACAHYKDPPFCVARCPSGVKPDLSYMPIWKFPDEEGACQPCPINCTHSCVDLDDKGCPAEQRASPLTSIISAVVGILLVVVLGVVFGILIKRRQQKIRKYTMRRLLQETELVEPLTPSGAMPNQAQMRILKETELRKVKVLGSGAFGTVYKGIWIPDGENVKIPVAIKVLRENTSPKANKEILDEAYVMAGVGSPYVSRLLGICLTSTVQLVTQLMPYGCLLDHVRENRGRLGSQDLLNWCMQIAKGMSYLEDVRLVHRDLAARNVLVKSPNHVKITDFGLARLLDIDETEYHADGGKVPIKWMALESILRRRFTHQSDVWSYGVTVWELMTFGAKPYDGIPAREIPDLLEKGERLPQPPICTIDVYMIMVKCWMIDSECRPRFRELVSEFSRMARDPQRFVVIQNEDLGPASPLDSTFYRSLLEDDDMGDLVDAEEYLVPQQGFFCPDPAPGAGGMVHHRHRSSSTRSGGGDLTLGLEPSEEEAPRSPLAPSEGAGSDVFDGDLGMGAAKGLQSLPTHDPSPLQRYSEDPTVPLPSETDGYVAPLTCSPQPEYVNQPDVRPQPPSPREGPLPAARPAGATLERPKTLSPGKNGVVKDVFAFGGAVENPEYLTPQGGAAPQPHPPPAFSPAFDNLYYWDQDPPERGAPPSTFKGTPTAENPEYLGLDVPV

[5] = target: EGFR wild type (EGFR WT) (Homo sapiens (Human), UniProt P00533); assay: Cellular Phosphorylation Assay, Assay 5 (EGF-stimulated EGFR phosphorylation, NIH 3T3 cells); assay type: cell-based
[6] = cellular ErbB2 YVMA phosphorylation
[7] = cellular EGFR WT phosphorylation, EGF-stimulated
[8] = EGF-stimulated EGFR WT phosphorylation

Chain of ErbB2 with Exon 20 YVMA insertion (HER2-YVMA) (P04626 other isoform, or with tags, fused parts or gaps ins YVMA behind 775): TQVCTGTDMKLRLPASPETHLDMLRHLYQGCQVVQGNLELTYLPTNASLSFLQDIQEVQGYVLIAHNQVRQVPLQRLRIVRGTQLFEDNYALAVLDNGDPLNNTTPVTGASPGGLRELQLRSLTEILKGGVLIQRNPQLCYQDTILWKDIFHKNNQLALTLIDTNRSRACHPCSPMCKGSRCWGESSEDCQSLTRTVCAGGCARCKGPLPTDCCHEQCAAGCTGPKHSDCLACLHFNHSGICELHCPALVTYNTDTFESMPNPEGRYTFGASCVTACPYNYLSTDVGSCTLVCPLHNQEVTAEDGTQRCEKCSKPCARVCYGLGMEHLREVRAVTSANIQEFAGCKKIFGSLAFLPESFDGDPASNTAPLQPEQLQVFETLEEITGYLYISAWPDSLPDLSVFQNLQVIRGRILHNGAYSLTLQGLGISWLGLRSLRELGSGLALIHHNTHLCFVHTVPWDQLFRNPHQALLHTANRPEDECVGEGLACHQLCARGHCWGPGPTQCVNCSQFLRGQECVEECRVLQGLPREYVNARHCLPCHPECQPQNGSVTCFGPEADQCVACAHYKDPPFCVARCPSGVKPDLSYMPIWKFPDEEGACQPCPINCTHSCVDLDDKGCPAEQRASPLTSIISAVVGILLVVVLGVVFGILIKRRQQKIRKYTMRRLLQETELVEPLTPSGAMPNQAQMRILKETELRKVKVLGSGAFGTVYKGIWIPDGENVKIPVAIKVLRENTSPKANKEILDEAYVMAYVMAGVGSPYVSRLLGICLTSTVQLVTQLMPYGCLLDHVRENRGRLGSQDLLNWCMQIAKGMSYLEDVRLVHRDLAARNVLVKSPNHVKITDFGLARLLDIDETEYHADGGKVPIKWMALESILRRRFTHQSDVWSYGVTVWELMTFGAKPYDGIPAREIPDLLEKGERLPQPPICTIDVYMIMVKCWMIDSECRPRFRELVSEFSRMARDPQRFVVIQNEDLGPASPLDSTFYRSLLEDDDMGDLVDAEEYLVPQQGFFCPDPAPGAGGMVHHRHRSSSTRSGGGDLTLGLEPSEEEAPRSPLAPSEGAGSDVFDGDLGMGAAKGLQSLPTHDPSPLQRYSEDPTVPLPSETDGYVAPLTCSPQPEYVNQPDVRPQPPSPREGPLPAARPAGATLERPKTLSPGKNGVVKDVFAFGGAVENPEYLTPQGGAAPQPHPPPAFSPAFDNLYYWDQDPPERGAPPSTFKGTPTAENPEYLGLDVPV

Compound | IC50 [1, 6] [nM] | IC50 ([2]; EGFR enzyme assay) [nM] | efflux ratio at 2 h, 1 µM [3] | IC50 ([4]; ErbB2 WT enzyme assay) [nM] | IC50 [5, 7] [nM] | IC50 ([1]; ErbB2 YVMA phosphorylation) [nM] | IC50 ([2]; EGFR enzyme) [nM] | IC50 ([4]; ErbB2 WT enzyme) [nM] | IC50 [5, 8] [nM]
C=CC(=O)N1CC2CC(C1)N2c1ccc2ncnc(Nc3ccc(Oc4ccc5c(c4)ncn5C)c(C)c3F)c2n1 [Example 335] | 15.4 | ≥ 10000 | 3 | 164 | ≥ 5000 |  |  |  | 
C=CC(=O)N1C[C@@H]2C[C@H]1C[C@H]2c1ccc2ncnc(Nc3cc(C)c(Oc4ccc5c(c4)ncn5C)cc3F)c2n1 [Example 375] | 19 | 1030 | 4 | 43.6 | 2020 |  |  |  | 
C=CC(=O)N1C[C@H]2CC[C@@H]1CN2c1ccc2ncnc(Nc3ccc(Oc4ccn5ncnc5c4)c(Cl)c3F)c2n1 [Example 328] | 15.7 | 692 | 7.7 | 50 | 1500 |  |  |  | 
C=CC(=O)N1C2CCC1CN(c1ccc3ncnc(Nc4cc(Cl)c(Oc5ccn6ncnc6c5)cc4F)c3n1)C2 [Example 434] | 9.8 | 1230 | 13.6 | 20.8 | 3490 |  |  |  | 
C=CC(=O)N1CCC(Oc2ccc3ncnc(Nc4ccc(Oc5cnc6cn(C)nc6c5)c(C)c4)c3n2)CC1 [Example 14, 1-(4-((4-((3-methyl-4-((2-methyl-2H-pyrazolo[4,3-b]pyridin-6-yl)oxy)phenyl)amino)pyrido[3,2-d]pyrimidin-6-yl)oxy)piperidin-1-yl)prop-2-en-1-one] |  |  |  |  |  | 48.4 | ≥ 10000 | 432 | ≥ 5000
C=CC(=O)N1CCC(c2ccc3ncnc(Nc4ccc(Oc5ccc6c(c5)ncn6C)c(C)c4)c3n2)C(C)C1 (stereo not drawn) [Example 125, 1-((3RS,4R*)3-methyl-4-(4-((3-methyl-4-((1-methyl-1H-benzo[d]imidazol-5-yl)oxy)phenyl)amino)pyrido[3,2-d]pyrimidin-6-yl)piperidin-1-yl)prop-2-en-1-one] |  |  |  |  |  | 40 | 7480 | 48.2 | ≥ 5000
C=CC(=O)N1C2CC1CN(c1ccc3ncnc(Nc4cc(Cl)c(Oc5cnc6c(c5)ncn6C)cc4F)c3n1)C2 [Example 241, 1-(3-(4-((5-chloro-2-fluoro-4-((3-methyl-3H-imidazo[4,5-b]pyridin-6-yl)oxy)phenyl)amino)pyrido[3,2-d]pyrimidin-6-yl)-3,6-diazabicyclo[3.1.1]heptan-6-yl)prop-2-en-1-one] |  |  |  |  |  | 22.2 | ≥ 10000 | 354 | ≥ 5000
C=CC(=O)N1CCN(c2ccc3ncnc(Nc4cc(Cl)c(Oc5ccn6ncnc6c5)cc4F)c3n2)C[C@H]1COC [Example 345] | 5.1 | 174 |  | 9.4 | 115 |  |  |  | 
C=CC(=O)N1CCN(c2nc3c(Nc4ccc(Oc5ccn6ncnc6c5)c(C)c4F)ncnc3cc2Cl)C[C@@H]1C [Example 149, (S)-1-(4-(4-((4-([1,2,4]triazolo[1,5-a]pyridin-7-yloxy)-2-fluoro-3-methylphenyl)amino)-7-chloropyrido[3,2-d]pyrimidin-6-yl)-2-methylpiperazin-1-yl)prop-2-en-1-one] |  |  |  |  |  | 192 | 6700 | 323 | ≥ 5000
C=CC(=O)N1CC(c2ccc3ncnc(Nc4ccc(Oc5ccc6c(c5)ncn6C)c(C)c4F)c3n2)CCC12CC2 (stereo not drawn) [Example 197, 1-(6-(4-((2-fluoro-3-methyl-4-((1-methyl-1H-benzo[d]imidazol-5-yl)oxy)phenyl)amino)pyrido[3,2-d]pyrimidin-6-yl)-4-azaspiro[2.5]octan-4-yl)prop-2-en-1-one] |  |  |  |  |  | 35.2 | 650 | 21.1 | 853
C=CC(=O)N1C[C@H]2CC[C@@H]1[C@@H](c1ccc3ncnc(Nc4ccc(Oc5cnc6c(c5)ncn6C)c(C)c4F)c3n1)C2 [Example 427] | 56.4 | 2990 |  | 104 | ≥ 5000 |  |  |  | 
C=CC(=O)N1CCN(c2ccc3ncnc(Nc4ccc(Oc5ccn6ncnc6c5)c(C)c4F)c3n2)C[C@@H]1C1CC1 [Example 285] | 34.1 | ≥ 10000 |  | 65.8 | ≥ 5000 |  |  |  | 
CC#CC(=O)N1C[C@@H]2CC[C@H]1CN2c1ccc2ncnc(Nc3ccc(Oc4ccn5ncnc5c4)c(C)c3F)c2n1 [Example 333] | 31 |  | 6.8 | 155 | 2130 |  |  |  | 
C=CC(=O)N1C2CCC1CN(c1ccc3ncnc(Nc4ccc(Oc5ccn6ncnc6c5)c(Cl)c4F)c3n1)C2 [Example 238, 1-(3-(4-((4-([1,2,4]triazolo[1,5-a]pyridin-7-yloxy)-3-chloro-2-fluorophenyl)amino)pyrido[3,2-d]pyrimidin-6-yl)-3,8-diazabicyclo[3.2.1]octan-8-yl)prop-2-en-1-one] |  |  |  |  |  | 5.5 | 114 | 11.7 | 90.3
C=CC(=O)N1CC2CCC(C1)N2c1ccc2ncnc(Nc3ccc(Oc4ccn5ncnc5c4)c(Cl)c3F)c2n1 [Example 445] | 5.7 | 33.6 |  | 4.7 | 60.1 |  |  |  | 
C=CC(=O)N1CCCN(c2nc3c(Nc4ccc(Oc5ccn6ncnc6c5)c(Cl)c4F)ncnc3cc2OC)CC1 [Example 153, 1-(4-(4-((4-([1,2,4]triazolo[1,5-a]pyridin-7-yloxy)-3-chloro-2-fluorophenyl)amino)-7-methoxypyrido[3,2-d]pyrimidin-6-yl)-1,4-diazepan-1-yl)prop-2-en-1-one] |  |  |  |  |  | 38.3 | 265 | 4 | 1790
C=CC(=O)N1C[C@H]2C[C@@H]1CN2c1ccc2ncnc(Nc3cc(C)c(Oc4ccn5ncnc5c4)cc3F)c2n1 [Example 78, 1-((1R,4R)-5-(4-((4-([1,2,4]triazolo[1,5-a]pyridin-7-yloxy)-2-fluoro-5-methylphenyl)amino)pyrido[3,2-d]pyrimidin-6-yl)-2,5-diazabicyclo[2.2.1]heptan-2-yl)prop-2-en-1-one] |  |  |  |  |  | 145 | ≥ 10000 | 448 | ≥ 5000
C=CC(=O)N1CCN(c2ccc3ncnc(Nc4ccc(Oc5ccn6ncnc6c5)c(Cl)c4F)c3n2)C[C@H]1COC [Example 344] | 3.4 | 88.4 |  | 7.7 | 46.8 |  |  |  | 
C=CC(=O)N1C[C@@H]2C[C@H]1CC[C@@H]2c1ccc2ncnc(Nc3ccc(Oc4ccn5ncnc5c4)c(C)c3F)c2n1 [Example 381] | 67.3 | 1720 |  | 28.9 | 2640 |  |  |  | 
C=CC(=O)N1C[C@H](c2ccc3ncnc(Nc4ccc(Oc5ccn6ncnc6c5)c(C)c4F)c3n2)C[C@H]1C (mixture of isomers) [Example 387] | 60.8 | 2200 |  | 52.1 | 4280 |  |  |  | 
C=CC(=O)N1CCCCC(c2ccc3ncnc(Nc4cc(C)c(Oc5ccn6ncnc6c5)cc4F)c3n2)C1 (stereo not drawn) [Example 376] | 36 | 2110 |  | 33.5 | 4490 |  |  |  | 
C=CC(=O)N1CCN(c2nc3c(Nc4ccc(Oc5ccn6ncnc6c5)c(Cl)c4F)ncnc3cc2OC)CC1 [Example 148, 1-(4-(4-((4-([1,2,4]triazolo[1,5-a]pyridin-7-yloxy)-3-chloro-2-fluorophenyl)amino)-7-methoxypyrido[3,2-d]pyrimidin-6-yl)piperazin-1-yl)prop-2-en-1-one] |  |  |  |  |  | 4.4 | 16.1 | 0.6 | 69
C=CC(=O)N1CCN(c2ccc3ncnc(Nc4ccc(Oc5cnc6c(c5)ncn6C)c(C)c4)c3n2)CC1(C)C [Example 250] | 9 | 4120 |  | 27.9 | 3200 |  |  |  | 
C=CC(=O)N1CC[C@H]2C[C@@H]1CN2c1ccc2ncnc(Nc3ccc(Oc4ccc5c(c4)ncn5C)c(C)c3F)c2n1 [Example 67, 1-((1R,5S)-6-(4-((2-fluoro-3-methyl-4-((1-methyl-1H-benzo[d]imidazol-5-yl)oxy)phenyl)amino)pyrido[3,2-d]pyrimidin-6-yl)-2,6-diazabicyclo[3.2.1]octan-2-yl)prop-2-en-1-one] |  |  |  |  |  | 35.8 | ≥ 10000 | 422 | ≥ 5000
C=CC(=O)N1CCC(Oc2ccc3ncnc(Nc4ccc(Oc5cnn6c(C)cnc6c5)c(C)c4F)c3n2)CC1 [Example 55, 1-(4-((4-((2-fluoro-3-methyl-4-((3-methylimidazo[1,2-b]pyridazin-7-yl)oxy)phenyl)amino)pyrido[3,2-d]pyrimidin-6-yl)oxy)piperidin-1-yl)prop-2-en-1-one] |  |  |  |  |  | 50.8 | ≥ 10000 | 2040 | 930
C=CC(=O)N1C[C@H]2CC[C@@H](C1)[C@@H]2c1ccc2ncnc(Nc3ccc(Oc4ccn5ncnc5c4)c(C)c3)c2n1 [Example 221, 1-((1R,5S,8r)-8-(4-((4-([1,2,4]triazolo[1,5-a]pyridin-7-yloxy)-3-methylphenyl)amino)pyrido[3,2-d]pyrimidin-6-yl)-3-azabicyclo[3.2.1]octan-3-yl)prop-2-en-1-one] |  |  |  |  |  | 78 | 2690 | 28.5 | ≥ 5000
